# According to patent US10300451B2, “Method for generating an affinity reagent library” (priority 2013, dated 2019):
# “Also recorded” adds a separate entry of the source.
# Experiments:
# αVβ6 = target: T1, αVβ6 (Homo sapiens, UniProt P06756+P18564); test: Inhibition of biotinylated-A20FMDV2 binding to αVβ6 expressing cells; assay type: cell-based; settings: scFv or peptide 0.1 and 1.0 μM; biotinylated A20FMDV2 10 nM
# T1 construct: A375puro endogenously express the RGD directed integrins α5β1, αVβ3, αVβ5 and αVβ8; expressed in transfected cells; host or cells: αVβ6-expressing cells; The method paragraph names no line
# T1 sequence (P06756 31-889 limits assumed): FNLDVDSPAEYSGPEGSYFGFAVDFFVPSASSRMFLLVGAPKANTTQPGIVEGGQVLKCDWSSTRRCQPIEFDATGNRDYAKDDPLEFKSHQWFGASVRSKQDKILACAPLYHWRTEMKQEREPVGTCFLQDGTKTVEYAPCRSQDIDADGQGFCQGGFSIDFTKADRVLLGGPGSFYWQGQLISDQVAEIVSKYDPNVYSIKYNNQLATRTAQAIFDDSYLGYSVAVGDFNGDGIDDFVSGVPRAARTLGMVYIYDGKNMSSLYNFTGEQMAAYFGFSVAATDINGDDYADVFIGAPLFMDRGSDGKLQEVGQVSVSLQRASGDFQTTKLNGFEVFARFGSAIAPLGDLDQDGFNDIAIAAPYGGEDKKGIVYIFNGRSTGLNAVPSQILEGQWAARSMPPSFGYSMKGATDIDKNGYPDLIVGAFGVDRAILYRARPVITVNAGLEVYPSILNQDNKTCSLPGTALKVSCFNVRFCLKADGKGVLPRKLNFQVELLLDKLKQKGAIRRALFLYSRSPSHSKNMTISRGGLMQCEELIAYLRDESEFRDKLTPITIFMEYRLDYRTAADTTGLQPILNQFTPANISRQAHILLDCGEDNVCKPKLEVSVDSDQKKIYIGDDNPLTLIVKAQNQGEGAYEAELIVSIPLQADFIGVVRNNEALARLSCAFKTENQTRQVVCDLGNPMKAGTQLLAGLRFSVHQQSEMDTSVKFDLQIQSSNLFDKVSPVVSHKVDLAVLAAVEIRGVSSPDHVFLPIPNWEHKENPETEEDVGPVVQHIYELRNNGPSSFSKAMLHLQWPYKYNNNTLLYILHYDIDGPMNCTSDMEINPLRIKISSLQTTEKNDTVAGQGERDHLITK
# T1 sequence (P06756 891-1048 limits assumed): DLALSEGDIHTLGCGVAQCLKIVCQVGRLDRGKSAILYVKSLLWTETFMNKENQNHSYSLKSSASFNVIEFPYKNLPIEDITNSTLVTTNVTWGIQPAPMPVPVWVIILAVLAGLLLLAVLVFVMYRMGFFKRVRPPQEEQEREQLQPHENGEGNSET
# T1 sequence (P18564 22-788): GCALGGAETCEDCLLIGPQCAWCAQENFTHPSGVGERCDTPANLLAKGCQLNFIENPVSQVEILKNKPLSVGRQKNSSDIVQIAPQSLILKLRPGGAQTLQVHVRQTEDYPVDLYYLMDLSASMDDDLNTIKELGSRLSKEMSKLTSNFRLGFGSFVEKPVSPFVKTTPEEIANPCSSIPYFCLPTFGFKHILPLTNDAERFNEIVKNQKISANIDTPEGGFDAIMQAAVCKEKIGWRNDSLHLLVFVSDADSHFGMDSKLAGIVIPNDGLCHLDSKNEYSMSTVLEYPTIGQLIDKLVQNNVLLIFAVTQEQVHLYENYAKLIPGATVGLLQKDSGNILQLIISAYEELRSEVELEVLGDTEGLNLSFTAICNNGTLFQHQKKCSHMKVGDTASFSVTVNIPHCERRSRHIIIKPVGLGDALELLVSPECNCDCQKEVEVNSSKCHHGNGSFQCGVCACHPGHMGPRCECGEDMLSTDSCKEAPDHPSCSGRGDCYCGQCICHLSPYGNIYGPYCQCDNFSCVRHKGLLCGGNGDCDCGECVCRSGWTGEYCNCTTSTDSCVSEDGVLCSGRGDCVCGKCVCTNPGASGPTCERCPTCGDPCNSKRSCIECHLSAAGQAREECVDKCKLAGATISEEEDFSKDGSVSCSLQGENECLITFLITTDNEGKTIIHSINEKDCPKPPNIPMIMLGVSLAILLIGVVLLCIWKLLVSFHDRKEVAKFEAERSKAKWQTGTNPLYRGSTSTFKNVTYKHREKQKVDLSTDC
# cellular αVβ6 = target: T2, cellular αVβ6 (Homo sapiens, UniProt P06756+P18564); test: Screening for integrin specificity by flow cytometry (A375Pβ6 vs A375Ppuro cells); assay type: cell-based
# T2 construct: A375puro endogenously express the RGD directed integrins α5β1, αVβ3, αVβ5 and αVβ8; expressed in transfected cells; host or cells: A375Pβ6 (αVβ6-positive), with A375Ppuro as the αVβ6-negative control
# T2 sequence (P06756 31-889 limits assumed): as the sequence (P06756 31-889 limits assumed) above
# T2 sequence (P06756 891-1048 limits assumed): as the sequence (P06756 891-1048 limits assumed) above
# T2 sequence (P18564 22-788): as the sequence (P18564 22-788) above
# Procedure: Purified scFv were tested for specificity for αVβ6 by flow cytometry using the isogenic pairs of cell lines, […] and A375Ppuro, which express similar levels of four RGD-binding integrins (αVβ3, αVβ5, αVβ8, α5β1) but only […] express αVβ6. Briefly, cells were detached with trypsin/EDTA, rinsed twice in ice-cold wash buffer (0.1% BSA/DMEM/0.1% NaN3) and 2×10^5 cells re-suspended in 50 μl of wash buffer per sample. In between all incubation steps, all samples were washed twice with wash buffer unless otherwise stated. Cells were incubated on ice for 1 hr with 0.1 or 1 uM purified scFv of peptide, washed twice. For scFv, cells were then incubated for 1 hr on ice with mouse anti-Myc antibody (clone 9E10, Santa Cruz) at 1:100. After washing, bound antibody was detected with anti-mouse IgG-Alexaflour 488 (1:250 for 1 h; Molecular Probes), on ice. Bound VH-CDR3 derived peptide were detected by rabbit anti-biotin IgG (1:200), followed by anti-rabbit IgG-Alexafluor 488 (1:250; Molecular Probes). Cells were analysed using the FACSCalibur (Beckton Dickinson). Cell expression of αVβ6 integrin was detected with mouse monoclonal antibody (clone 10D5, 10 μg/ml; Millipore) and non-specific (control) binding with non-immune class matched IgG.
# [1] = tested on: αVβ6-dependent adhesion of carcinoma cells to immobilised fibronectin; test: Picogreen adhesion assay on fibronectin; assay type: cell-based, human; settings: fibronectin 10 ug/ml
# Procedure: All adhesion assays were performed in quadruplicate and repeated at least 2-3 times. In a 96-well plate format, test wells were coated with Fibronectin (10 ug/ml/PBS) and negative control wells were coated with 0.1% BSA (bovine serum albumin)/PBS. After incubation at 37° C. for 1 hour, plates were washed in PBS thwice and blocked with 0.1% BSA/PBS for 30 mins at 37° C. Following a PBS rinse, cells were seeded into the wells, the plate resting on ice to avoid dehydration and to ensure an initial uniform temperature for the experiment. Purified scFv or peptide was added (25 ul) to the wells at the desired concentrations, before adding 1.5×10^4 cells (25 ul) per well. In some experiments, cells (1.5×10^4) were pre-treated with β1 blocking antibody AIIB2 at 10 ug/ml before seeding into test wells. To determine percentage adhesion, standard curves were generated by plating 0-2.5×10^4 cells in separate wells. After incubating plates at 37° C. for 30′ plates were washed twice in 1 mM CaCl2/0.5 mM MgCl2/PBS and transferred into −80° C. for 15 mins. Adherent cells were quantified using a Picogreen kit (Invitrogen) and analysed on a fluorescence reader (FLUOstar Optima, BMG Labtech Ltd, Bucks, UK).
# αVβ6-expressing cells = test: Internalisation assay (confocal microscopy); assay type: cell-based, human; settings: for intracellular localisation after incubation: 37° C. for 45 minutes, αVβ6-expressing cells; for cellular internalisation in αVβ6-expressing cells: 37° C., 0 and 45 minutes
# Procedure: In 24-well culture plates, 2×10^4 cells (DX3puro, DX3β6 or VB6) were seeded onto 13 mm diameter glass coverslips and allowed to incubate overnight at 37° C. in growth medium. Cells were washed thwice in serum free medium (SFM) and then scFv (4 uM) or biotinylated-CDR3-peptide (100 nM) diluted in SFM added on ice for 10 mins. After two ice-cold washes and a further 10 mins on ice with mouse anti-biotin antibody (10 ug/ml) pre-warmed media containing 10% FCS was added to the cells and incubated at 37° C. At 10 min intervals between 0-60 mins, cells were fixed in 2% HCHO in PBS and permeabilised with 0.1% TritonX-100 (PBS) for 3 mins. scFv was detected with mouse anti c-myc (1:100 dilution, clone 9E10; 30 mins, ambient temperature) and followed by while peptides were detected by rabbit anti-biotin IgG (1:200). Both peptide and scFv detected with anti-mouse Alexa488 for 30′. Nuclei were counter-labelled with 4′,6-diamidino-2-phenylindole (DAPI), coverslips mounted with Mowiol and samples examined by confocal microscopy (Zeiss LSM510, Welwyn Garden City).
sequence,measurement,setting,value
QPRGDLRELAARSEAQLQEKGI (Peptide sequence comprising RGD motif followed by a C-terminal alpha-helix or 3(10)-helix) [D34p],inhibition of binding of A20FMDV2 peptide to cellular αvβ6,αVβ6,dose-dependent inhibition
same,binding to αVβ6-expressing cells (flow cytometry),cellular αVβ6,αVβ6-specific binding
same,inhibition of αVβ6-dependent adhesion of carcinoma cells to immobilised fibronectin,[1],inhibited; also recorded: significant concentration-dependent inhibition
same,intracellular localisation after incubation,αVβ6-expressing cells,nuclear localisation was not seen
same,cellular internalisation in αVβ6-expressing cells,αVβ6-expressing cells,Internalisation
same,cellular internalisation in αVβ6-negative cells,αVβ6-expressing cells,No peptide internalization was observed
EPRGDLRTLAAREKRNFNETLARLQEKGI (Peptide sequence comprising RGD motif followed by a C-terminal alpha-helix or 3(10)-helix) [D25p],inhibition of binding of A20FMDV2 peptide to cellular αvβ6,αVβ6,dose-dependent inhibition
same,binding to αVβ6-expressing cells (flow cytometry),cellular αVβ6,αVβ6-specific binding
same,inhibition of αVβ6-dependent adhesion of carcinoma cells to immobilised fibronectin,[1],inhibited; also recorded: significant concentration-dependent inhibition
same,intracellular localisation after incubation,αVβ6-expressing cells,nuclear localisation was not seen
same,cellular internalisation in αVβ6-expressing cells,αVβ6-expressing cells,Internalisation
same,cellular internalisation in αVβ6-negative cells,αVβ6-expressing cells,No peptide internalization was observed
